Assay results: article PMC7549094 (Journal of Medicinal Chemistry, 2020)

Key:
[1] = molecular target: T1, hr 5-HT3 (Homo sapiens, UniProt P46098); assay: receptor profile (Table S4); type: binding
T1 sequence (P46098 24-478): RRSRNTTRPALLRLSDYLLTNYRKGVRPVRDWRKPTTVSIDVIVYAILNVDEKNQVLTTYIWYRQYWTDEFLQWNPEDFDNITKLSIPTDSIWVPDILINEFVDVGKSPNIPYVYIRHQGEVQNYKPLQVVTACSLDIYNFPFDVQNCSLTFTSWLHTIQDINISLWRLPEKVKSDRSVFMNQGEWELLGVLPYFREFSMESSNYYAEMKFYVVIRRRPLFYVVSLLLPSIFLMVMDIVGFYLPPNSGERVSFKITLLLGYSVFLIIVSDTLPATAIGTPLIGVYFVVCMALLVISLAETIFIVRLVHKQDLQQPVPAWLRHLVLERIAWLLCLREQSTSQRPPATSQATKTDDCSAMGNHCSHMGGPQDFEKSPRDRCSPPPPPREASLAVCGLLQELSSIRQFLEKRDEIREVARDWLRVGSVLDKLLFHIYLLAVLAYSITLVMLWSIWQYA

[2] = molecular target: T2, hr TP ag (Homo sapiens, UniProt P21731); assay: receptor profile (Table S4); type: biochemical
T2 sequence (P21731 1-343): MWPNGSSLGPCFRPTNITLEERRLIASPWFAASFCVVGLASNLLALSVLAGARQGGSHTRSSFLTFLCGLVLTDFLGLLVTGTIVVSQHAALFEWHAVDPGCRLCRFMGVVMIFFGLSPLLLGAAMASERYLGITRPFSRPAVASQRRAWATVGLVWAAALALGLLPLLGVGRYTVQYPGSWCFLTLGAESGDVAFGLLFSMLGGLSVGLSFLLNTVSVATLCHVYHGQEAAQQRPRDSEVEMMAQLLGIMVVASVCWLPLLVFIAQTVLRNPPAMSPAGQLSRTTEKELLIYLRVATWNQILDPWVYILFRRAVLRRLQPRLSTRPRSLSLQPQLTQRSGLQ

[3] = molecular target: T3, hr M1 (Homo sapiens, UniProt P11229); assay: receptor profile (Table S4); type: binding
T3 sequence (P11229 1-460): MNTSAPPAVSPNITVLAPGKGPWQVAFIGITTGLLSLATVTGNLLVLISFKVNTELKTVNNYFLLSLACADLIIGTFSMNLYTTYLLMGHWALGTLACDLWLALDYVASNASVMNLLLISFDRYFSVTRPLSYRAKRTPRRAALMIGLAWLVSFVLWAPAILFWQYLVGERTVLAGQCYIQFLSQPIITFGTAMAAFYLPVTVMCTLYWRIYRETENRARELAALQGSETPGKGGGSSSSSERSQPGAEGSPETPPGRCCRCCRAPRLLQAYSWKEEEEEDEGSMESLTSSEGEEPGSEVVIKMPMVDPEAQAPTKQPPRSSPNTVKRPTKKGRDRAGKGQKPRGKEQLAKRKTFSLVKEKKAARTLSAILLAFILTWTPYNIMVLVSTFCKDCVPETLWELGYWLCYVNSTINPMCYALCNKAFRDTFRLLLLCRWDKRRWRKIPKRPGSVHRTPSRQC

[4] = in vivo; conditions: male, Sprague-Dawley, rat
[5] = molecular target: hr D3 (Homo sapiens, UniProt P35462); assay: receptor profile (Table S4); type: binding
hr D3, sequence (P35462 whole entry): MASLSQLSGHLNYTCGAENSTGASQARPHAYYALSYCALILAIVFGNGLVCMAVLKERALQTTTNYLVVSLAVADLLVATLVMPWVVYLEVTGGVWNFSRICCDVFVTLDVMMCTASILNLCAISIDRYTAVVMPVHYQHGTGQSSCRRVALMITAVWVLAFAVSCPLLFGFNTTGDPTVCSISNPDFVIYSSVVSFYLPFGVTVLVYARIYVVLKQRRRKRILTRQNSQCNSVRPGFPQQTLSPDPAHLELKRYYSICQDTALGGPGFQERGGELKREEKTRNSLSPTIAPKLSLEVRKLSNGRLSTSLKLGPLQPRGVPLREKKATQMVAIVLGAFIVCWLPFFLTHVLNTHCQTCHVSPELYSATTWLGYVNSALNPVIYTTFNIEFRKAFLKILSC

[6] = molecular target: hr D2 (Homo sapiens, UniProt P14416); assay: receptor profile (Table S4); type: binding
hr D2, sequence (P14416 whole entry): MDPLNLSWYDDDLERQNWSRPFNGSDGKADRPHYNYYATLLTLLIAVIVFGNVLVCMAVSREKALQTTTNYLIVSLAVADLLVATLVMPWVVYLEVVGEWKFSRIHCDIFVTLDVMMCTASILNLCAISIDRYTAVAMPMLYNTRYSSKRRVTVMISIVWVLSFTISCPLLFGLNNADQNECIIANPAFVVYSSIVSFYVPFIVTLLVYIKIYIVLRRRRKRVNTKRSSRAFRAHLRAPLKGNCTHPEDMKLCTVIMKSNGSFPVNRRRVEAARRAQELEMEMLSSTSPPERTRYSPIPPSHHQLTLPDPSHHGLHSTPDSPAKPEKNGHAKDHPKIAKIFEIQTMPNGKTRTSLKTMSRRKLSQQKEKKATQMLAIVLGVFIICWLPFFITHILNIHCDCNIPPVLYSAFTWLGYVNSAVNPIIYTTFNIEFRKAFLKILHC

Structure (SMILES): Cc1nc(C)c(C(=O)Nc2ccc(F)c(-c3nc4ncc(-c5ncccc5C)cn4n3)c2)o1 [compound 1, N-(4-Fluoro-3-(6-(3-methylpyridin-2-yl)-[1,2,4]triazolo[1,5-a]pyrimidin-2-yl)phenyl)-2,4-dimethyloxazole-5-carboxamide]
- EC50/IC50 ([1]; hr 5-HT3): > 30 µM
- inhibition at 10 µM ([1]; read-out: % inh/act @ 10 µM): 22%
- inhibition at 30 µM ([1]; read-out: % inh/act @ 30 µM): 19%
- EC50/IC50 ([2]; hr TP ag): > 30 µM
- inhibition at 10 µM ([2]; read-out: % inh/act @ 10 µM): -5%
- inhibition at 30 µM ([2]; read-out: % inh/act @ 30 µM): -2%
- EC50/IC50 ([3]; hr M1): > 30 µM
- inhibition at 10 µM ([3]; read-out: % inh/act @ 10 µM): 25%
- inhibition at 30 µM ([3]; read-out: % inh/act @ 30 µM): 26%
- clearance ([4]; in vivo, iv, 3 mg/kg): 2.1 mL/min/kg
- MRT ([4]; plasma, iv, 3 mg/kg): 4.3 h
- Vd ([4]; plasma, iv, 3 mg/kg): 0.53 L/kg
- half-life ([4]; plasma, iv, 3 mg/kg): 3.8 h
- bioavailability ([4]; plasma, po, 10 mg/kg): 67%
- EC50/IC50 ([5]; hr D3): > 30 µM
- inhibition at 10 µM ([5]; read-out: % inh/act @ 10 µM): 9%
- inhibition at 30 µM ([5]; read-out: % inh/act @ 30 µM): 7%
- EC50/IC50 ([6]; hr D2): > 30 µM
- inhibition at 10 µM ([6]; read-out: % inh/act @ 10 µM): 7%
- inhibition at 30 µM ([6]; read-out: % inh/act @ 30 µM): 15%
